Source: ChEMBL document CHEMBL1201862, “PubChem BioAssay data set” (2004)
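A five-concentration, 48-hour dose response in 96-well plates underlies each endpoint, interpolated linearly between surrounding concentrations. GI50 = concentration required for 50% inhibition of growth.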 Activity calls are given as the source filed them. Cut-off read from the data, not from the text of the source: active = GI50 up to about 1.1 µM and inactive = higher.

Experiments:
Assay in all cases: NCI anticancer screen, dose series, 48 h
786-0 = test system: 786-0
BT-549 = test system: BT-549
CAKI-1 = test system: CAKI-1
HCT-15 = test system: HCT-15
HL-60 = test system: HL-60
HT-29 = test system: HT-29
LOX IMVI = test system: LOX IMVI
M14 = test system: M14
MCF7 = test system: MCF7
MOLT-4 = test system: MOLT-4
NCI/ADR-RES = test system: NCI/ADR-RES
SF-268 = test system: SF-268
SK-MEL-2 = test system: SK-MEL-2
SW-620 = test system: SW-620
U-251 = test system: U-251
UO-31 = test system: UO-31
MDA-N = test system: MDA-N
PC-3 = test system: PC-3
TK-10 = test system: TK-10

Structure (SMILES)	GI50 (786-0)	GI50 (BT-549)	GI50 (CAKI-1)	GI50 (HCT-15) [µM]	GI50 (HL-60)	GI50 (HT-29)	GI50 (LOX IMVI)	GI50 (M14)	GI50 (MCF7)	GI50 (MOLT-4)	GI50 (NCI/ADR-RES)	GI50 (SF-268)	GI50 (SK-MEL-2)	GI50 (SW-620)	GI50 (U-251)	GI50 (UO-31)	GI50 (MDA-N)	GI50 (PC-3)	GI50 (TK-10)
Cc1cc(C)cc(Nc2nnc3n2S(=O)(=O)c2cc(C#N)c(Cl)cc2S3)c1	2.22 µM (inactive)	2.16 µM (inactive)	3.24 µM (inactive)	2.52	1.68 µM (inactive)	1.83 µM (inactive)	2.89 µM (inactive)	5.57 µM (inactive)	1.87 µM (inactive)	1.11 µM (active)	2.44 µM (inactive)	2.2 µM (inactive)	7.53 µM (inactive)	2.39 µM (inactive)	1.96 µM (inactive)	4.86 µM (inactive)	–	–	–
COc1c2c3c4c(c(OC)c(=O)c5c(O)cc(OC)c(c6c(OC)cc(O)c(c1=O)c63)c54)C(C(C)O)C2C(C)=O (stereo not drawn)	0.61 µM (active)	–	0.279 µM (active)	0.652	0.334 µM (active)	0.47 µM (active)	0.244 µM (active)	0.288 µM (active)	0.603 µM (active)	0.279 µM (active)	0.296 µM (active)	0.492 µM (active)	0.738 µM (active)	0.395 µM (active)	0.299 µM (active)	0.325 µM (active)	0.282 µM (active)	0.26 µM (active)	0.581 µM (active)
Nc1nc(Cl)c2ncn(Cc3cccc(CCl)c3)c2n1	5.37 µM (inactive)	4.09 µM (inactive)	1.23 µM (inactive)	2.12	3.95 µM (inactive)	3.87 µM (inactive)	3.33 µM (inactive)	3.66 µM (inactive)	5.35 µM (inactive)	3.6 µM (inactive)	3.47 µM (inactive)	5.09 µM (inactive)	12.1 µM (inactive)	3.61 µM (inactive)	2.17 µM (inactive)	13.4 µM (inactive)	–	10.2 µM (inactive)	6.31 µM (inactive)
N#CSC/C(Cl)=C/Cl.N#CSC/C(Cl)=C\Cl	> 100 µM (inactive)	–	–	> 100	43.9 µM (inactive)	> 100 µM (inactive)	20.4 µM (inactive)	> 100 µM (inactive)	–	29.7 µM (inactive)	> 100 µM (inactive)	> 100 µM (inactive)	> 100 µM (inactive)	> 100 µM (inactive)	> 100 µM (inactive)	> 100 µM (inactive)	> 100 µM (inactive)	> 100 µM (inactive)	> 100 µM (inactive)
COCCOC(=O)C(C)=[N+]=[N-]	> 100 µM (inactive)	> 100 µM (inactive)	> 100 µM (inactive)	> 100	–	> 100 µM (inactive)	> 100 µM (inactive)	–	> 100 µM (inactive)	–	> 100 µM (inactive)	> 100 µM (inactive)	–	> 100 µM (inactive)	> 100 µM (inactive)	> 100 µM (inactive)	> 100 µM (inactive)	> 100 µM (inactive)	> 100 µM (inactive)
C/C(=N\NS(=O)(=O)c1ccc(C)cc1)c1ccccn1	45.3 µM (inactive)	> 100 µM (inactive)	36 µM (inactive)	38.5	34 µM (inactive)	44.5 µM (inactive)	55.6 µM (inactive)	34.6 µM (inactive)	53.8 µM (inactive)	21.2 µM (inactive)	38 µM (inactive)	67.3 µM (inactive)	> 100 µM (inactive)	> 100 µM (inactive)	88.5 µM (inactive)	40.5 µM (inactive)	–	84.3 µM (inactive)	70.6 µM (inactive)
O=C(N=C1N(c2ccccc2)C(=O)C(=O)N1c1ccccc1)c1ccccc1	3.68 µM (inactive)	–	13.5 µM (inactive)	9.66	31.2 µM (inactive)	13.7 µM (inactive)	3.78 µM (inactive)	–	–	15.5 µM (inactive)	11 µM (inactive)	15.1 µM (inactive)	15.5 µM (inactive)	13.1 µM (inactive)	11.7 µM (inactive)	14.5 µM (inactive)	–	14.7 µM (inactive)	15.3 µM (inactive)
Nc1ccccc1-c1noc(=O)[nH]1	> 100 µM (inactive)	> 100 µM (inactive)	> 100 µM (inactive)	> 100	–	> 100 µM (inactive)	> 100 µM (inactive)	> 100 µM (inactive)	> 100 µM (inactive)	> 100 µM (inactive)	> 100 µM (inactive)	> 100 µM (inactive)	> 100 µM (inactive)	> 100 µM (inactive)	> 100 µM (inactive)	> 100 µM (inactive)	–	> 100 µM (inactive)	> 100 µM (inactive)
